In patent US20210300981A1, “COMPOSITIONS AND METHODS FOR COMBATING MULTIDRUG-RESISTANT BACTERIA” (University of Virginia Patent Foundation, priority 2018, published 2021):
Where a SMILES comes first, the peptide text is derived from it. Where no end group is shown, it is not given here. [ ]: non-standard residue; d: D form. ξ: configuration not given here. ξαMeGly(pent-4-enyl) = C=CCCCC(C)(N)C(=O)O

What was measured:
[1] = Truncation of Peptide P9, retention of activity; conditions: first 6 amino acids removed
Text: In some embodiments, alanine scans are available for […] (SEQ ID NO: 11). The alanine scan was used to modify the malleable position 8 and to make a conservative substitution at alanine residue 12 with an alkenyl derivative of alanine, namely, 2-(4-pentenyl)alanine, and then the alkene groups at positions 8 and 12 were coupled/stapled. Thus, a modified peptide in accordance with the presently disclosed subject matter includes a coupled peptide or a stapled peptide. […] Further, the first 6 amino acids present in […] (SEQ ID NO: 11) can be removed one by one while still retaining activity; removing all 6 gives KNLLKAVSKERSKRSP (SEQ ID NO: 12). Further truncations are also provided, including from the other end (such as the two end residues based on the alanine scan).

CRE K. pneumoniae [2] = format: cell-based, Klebsiella pneumoniae; conditions: for bactericidal activity versus negative control Peptide P5: 2.5×10^5 cfu/ml; for function of alanine scan variants: 2 hours (FIGS. 21, 22)
MDR S. Typhi [3] = format: cell-based, Salmonella enterica serovar Typhi; conditions: 50 μM, RPMI/HEPES, 2.5×10^5 cfu/ml
N. gonorrhoeae = conditions: 2 h, 22.4 μM
CD45+/CD3+ T lymphocytes = experiment: Host-targeted bioregulatory effects: in vivo recruitment/infiltration of T lymphocytes; parameters: species or system C57BL/6 mice; conditions: as stated in the sequence description; FIG. 12
[4] = tested on: B. anthracis Sterne strain 7702 spores; format: cell-based, Bacillus anthracis; conditions: 50 μM, RPMI/HEPES+2% FBS, 3 hours post-treatment, 1.0×10^7 cfu/ml spores
K. pneumoniae ATCC 43816 = experiment: Full-thickness wound infection model; format: in vivo, C57BL/6 mice
trypsin protease = experiment: Resistance to proteolytic degradation (trypsin pretreatment, read out by killing of CRE K. pneumoniae); conditions: trypsin 200:1 molar ratio, 2 hours, 50 mM Tris-HCl + 20 mM CaCl2
MDR A. baumannii = conditions: 2 h, 1.4 μM
MDR S. Typhi [5] = conditions: 2 h, 2.8 μM
CRE K. pneumoniae [6] = tested on: CRE K. pneumoniae
MDR P. aeruginosa = conditions: 2 h, 5.6 μM
MRSA = conditions: 2 h, 11.2 μM
VRE = conditions: 2 h, 11.2 μM
MDR Enterobacter cloacae = conditions: 2 h, 16.8 μM
B. anthracis = conditions: 2 h, 22.4 μM
[7] = assay media, higher concentrations

## KNLLKAVSKERSKRSP (Artificially synthesized antibacterial peptide or conjugate) [SEQ ID NO: 12, 16 amino acid core, truncated version of Peptide P9]
[1]
  retention of the activities of Peptide P9 after truncation: retains the activities of Peptide P9

## VPLSRTVRTVRCTCISIGGGPESKAIKNLLKAVSKERSKRSP [Peptide P55]
CRE K. pneumoniae [2]; 50 μM, RPMI/HEPES
  bactericidal activity versus negative control Peptide P5: statistically significant differences
MDR S. Typhi [3]
  bactericidal activity versus negative control Peptide P5: statistically significant differences

## ATVRCTCI (Artificially synthesized antibacterial peptide or conjugate) [SEQ ID NO: 25, alanine scan variant of Peptide L8, position 1]
CRE K. pneumoniae [2]; 50 μM, RPMI/HEPES
  function of alanine scan variants: still functional

## PESKAIKNLLKAVSKERSKRSP [Peptide P9]
CRE K. pneumoniae [2]; 10 mM KPB/1% TSB, 2 hours at 37° C., FIG. 10
  activity in hypotonic buffer: had activity
CRE K. pneumoniae [2]; RPMI/HEPES, 2 hours at 37° C., FIG. 10
  activity in RPMI (normosaline): lost activity
N. gonorrhoeae
  killing of bacteria: 99.0-99.9%

## LSRTVRCTCISI (Artificially synthesized antibacterial peptide or conjugate) [Peptide ΔVP, truncated Peptide P1 variant lacking the first two amino acids]
CRE K. pneumoniae [2]; 50 μM, RPMI/HEPES
  bactericidal activity versus negative control Peptide P5: statistically significant differences
MDR S. Typhi [3]
  bactericidal activity versus negative control Peptide P5: statistically significant differences
CD45+/CD3+ T lymphocytes
  immunomodulatory activity: reduced or absent immunomodulatory activity

## RAVRCTCI (Artificially synthesized antibacterial peptide or conjugate) [SEQ ID NO: 26, alanine scan variant of Peptide L8, position 2]
CRE K. pneumoniae [2]; 50 μM, RPMI/HEPES
  function of alanine scan variants: still functional

## RTVRCTCI [Peptide D8]
CRE K. pneumoniae [2]; 50 μM peptide pretreated with trypsin (200:1 molar ratio) for 2 hours
  antimicrobial activity after incubation with trypsin: retaining antimicrobial activity
CRE K. pneumoniae [2]; 50 μM, RPMI/HEPES
  bactericidal activity versus negative control Peptide P5: statistically significant differences
MDR S. Typhi [3]
  bactericidal activity versus negative control Peptide P5: statistically significant differences
[4]
  spore germination (numbers of bacilli): reduced spore germination
K. pneumoniae ATCC 43816; 10 μl of 1.2% peptide in saline topically, 4 hours post-infection then twice per day for 4 days, versus saline
  survival (Kaplan-Meier) of infected mice: statistically significant increase in survival
K. pneumoniae ATCC 43816; same treatment, day 14 post-infection
  bacterial burden of wound swabs on LB agar: No bacterial growth was observed
K. pneumoniae ATCC 43816; same treatment, through day 21
  wound status over the course of infection: bacterial infection was resolved and healing occurred
Trypsin protease
  resistance to proteolytic degradation: resistant to proteolytic degradation

## PESKAIKNLLKAVSKERSKRSPGGGVPLSRTVRCTCISI (Artificially synthesized antibacterial peptide or conjugate) [Peptide P59, Peptide P9 conjugated to Peptide P1 via a tri-glycine linker]
[4]
  spore germination (numbers of bacilli): reduced spore germination

## CC[C@H](C)[C@H](NC(=O)[C@H](CO)NC(=O)[C@@H](NC(=O)[C@H](CS)NC(=O)[C@@H](NC(=O)[C@H](CS)NC(=O)[C@H](CCCNC(=N)N)NC(=O)[C@@H](NC(=O)[C@@H](NC(=O)[C@H](CCCNC(=N)N)NC(=O)[C@H](CO)NC(=O)[C@H](CC(C)C)NC(=O)[C@@H]1CCCN1C(=O)[C@@H](N)C(C)C)[C@@H](C)O)C(C)C)[C@@H](C)O)[C@@H](C)CC)C(=O)O [Peptide P1, VPLSRTVRCTCISI] (H-VPLSRTVRCTCISI-OH; N-terminus and C-terminus assumed)
MDR A. baumannii
  killing of bacteria: 99.0-99.9%
MDR S. flexneri; MDR, 2 h, 2.8 μM
  killing of bacteria: 99.0-99.9%
MDR S. Typhi [5]
  killing of bacteria: 99.0-99.9%
CRE K. pneumoniae [6]; CRE, 2 h, 5.6 μM
  killing of bacteria: 99.0-99.9%
MDR P. aeruginosa
  killing of bacteria: 99.0-99.9%
MRSA
  killing of bacteria: 99.0-99.9%
VRE
  killing of bacteria: 99.0-99.9%
MDR Enterobacter cloacae
  killing of bacteria: 99.0-99.9%
N. gonorrhoeae
  killing of bacteria: 99.0-99.9%
B. anthracis
  killing of bacteria: 99.0-99.9%
[7]
  solubility: experienced solubility issues at higher concentrations

## L8-L8-L8: three copies of Peptide L8 concatemerized in head-to-tail configuration (RTVRCTCIRTVRCTCIRTVRCTCI; Artificially synthesized antibacterial peptide or conjugate) [Peptide L8-L8-L8]
CRE K. pneumoniae [2]; 50 μM, RPMI/HEPES
  bactericidal activity versus negative control Peptide P5: killed CRE K. pneumoniae statistically significantly more effectively than Peptide P5

## PESKAIK(pA)LLK(pA)VSKERSKRSP (PESKAIK[ξαMeGly(pent-4-enyl)]LLK[ξαMeGly(pent-4-enyl)]VSKERSKRSP) [alkene-modified peptide, Peptide P9 variant with 2-(4-pentenyl)alanine at amino acids 8 and 12]
CRE K. pneumoniae [2]; 50 μM, RPMI/HEPES, 2 hours (FIG. 20)
  activity of modified Peptide P9 variants relative to Peptide P9: increased activity

## CSVPTITCRVRLIS (Artificially synthesized antibacterial peptide or conjugate) [Peptide P1scram]
MDR S. flexneri; 2.8 μM peptide, FIG. 6
  survival of bacteria following exposure (killing): did not kill bacteria
CRE K. pneumoniae [6]; 2.8 μM peptide, FIG. 6
  survival of bacteria following exposure (killing): did not kill bacteria

## RTVRCTCI [Peptide L8]
CRE K. pneumoniae [2]; 50 μM, RPMI/HEPES
  bactericidal activity versus negative control Peptide P5: killed CRE K. pneumoniae statistically significantly more effectively than Peptide P5
